Data on ten compounds can be found in article PMC12242638, “Drug Repurposing by Virtual Screening: Identification of New Already Approved ROCK Inhibitors as Promising Drugs to Target Neurodegeneration” (ACS Omega, 2025).

One data set has as its target hROCK1 (Homo sapiens, UniProt Q13464). The data set can be described thus: HotSpot Kinase Assay, ROCK1 inhibition (Reaction Biology Corp.). The data set is classed as biochemical. The method, then:
(§1) The HotSpot Kinase Assay was used for compound screening on protein kinases, as already reported. The assay was performed in a base reaction buffer containing 20 mM Hepes (pH 7.5), 10 mM MgCl2, 1 mM EGTA, 0.01% Brij-35, 0.02 mg/mL BSA, 0.1 mM Na3VO4, 2 mM DTT, and 1% DMSO, with the required cofactors added individually to each kinase reaction. The substrate was prepared in freshly made base reaction buffer, and cofactors were added accordingly. The indicated kinase was then delivered into the substrate solution and gently mixed. Test compounds, dissolved in 100% DMSO, were added to the kinase reaction mixture using acoustic technology (Echo550; nanoliter range), followed by incubation for 20 min at room temperature. The reaction was initiated by adding ^33P-ATP (1 μM) and incubating for 2 h at room temperature. Kinase activity was detected using the P81 filter-binding method.

For another data set, the target named is hROCK2 (Homo sapiens, UniProt O75116). The data set can be described thus: HotSpot Kinase Assay, ROCK2 inhibition (Reaction Biology Corp.). The data set is classed as biochemical. The method, then:
as §1

The conditions of data set [1]: previously reported; cited from earlier work.
The test system of another data set is ROCK1. The conditions noted are these: introduction, literature values; read-out: ROCK1 IC50 of approved ROCK inhibitors; cited from earlier work.
In a further data set the test system is ROCK2. The following applies: introduction, literature values; read-out: ROCK2 IC50 of approved ROCK inhibitors; cited from earlier work.
In data set [2] the test system is mouse hippocampal neurons. The following applies: primary cultures of mouse hippocampal neurons; cited from earlier work.
A further data set deals with PKCα (Homo sapiens, UniProt P17252). The data set can be described thus: HotSpot Kinase Assay, AGC kinase selectivity, PKCα. In kind it is biochemical. The method, then:
as §1

Another data set deals with C6 cells. The data set can be described thus: MTT cell viability, C6 glioma cell line. The following applies: 0.1 to 5 μM, 24 h. In kind it is cell-based. As to the method:
(§2) Prior to the experiments, SH-SY5Y cells were cultured in DMEM/F12 plus 10% FBS (Fetal bovine serum, Invitrogene). […] The cells were incubated for 24 h under these conditions.
(§3) C6 and SH-SY5Y cells were plated in a 96-well plate with 1 × 10^4 cells per well. Cell morphology was observed using an EVOS phase-contrast microscope (Invitrogen, ThermoFisher Scientific, USA), and viability was evaluated using a 3-[4,5-dimethylthiazol-2-yl]-2,5-diphenyltetrazolium bromide (MTT) reduction assay. After 24 h of treatment, cells were incubated with 0.5 mg/mL MTT dye for 3 h at 37 °C and 5% CO2. This assay evaluates the labeling activity of mitochondrial dehydrogenases such as succinate dehydrogenase by reducing MTT (yellow) to a purple formazan salt. The culture media were removed, and the crystals were dissolved in 150 μL DMSO. The intensity of formazan was measured using a GloMax spectrophotometer (Promega) at a wavelength of 560 nm.

A further data set concerns SH-SY5Y cells. The data set can be described thus: MTT cell viability, SH-SY5Y cell line. The following applies: 0.1 to 5 μM, 24 h. The data set is classed as cell-based. As to the method:
as §2, §3

Data set [3] has as its system murine primary astrocytes. The data set can be described thus: GFAP and C3 immunocytochemistry in LPS-treated primary cortical astrocytes. In kind it is cell-based, C57BL/6 mice (Mus musculus). The conditions noted are these: 24 h; for C3 immunostaining in LPS-treated astrocyte cultures: 1 μM ruxolitinib, LPS 10 μg/mL. The method, then: Primary cortical astrocyte cultures were prepared from brains of P0–3 C57BL/6 mice as described by Matias et al. The meninges of the brain were removed to cortex desiccation in Gey’s buffer, and the cerebral cortex was maintained in DMEM/F12, supplemented with 10% FBS. […] After 24 h, cultures were washed and fixed.
Astrocyte cultures were fixed with 4% PFA in phosphate-buffered saline (PBS, pH 7.4) for 15 min, and nonspecific sites were blocked with 3% BSA, 5% normal goat serum, and 0.2% Triton X-100 diluted in PBS for 1 h, before incubation with the rabbit anti-GFAP (1:1,000, DAKO Cytomation, Cat. Z0334) and the rat anti-C3 (1:100, Abcam, Cat. ab11862) at 4 °C overnight. Subsequently, the cells were thoroughly washed with PBS and incubated with secondary antibodies at room temperature for 2 h.

“Also recorded” adds a separate entry of the source.

hROCK2, sequence (O75116 whole entry): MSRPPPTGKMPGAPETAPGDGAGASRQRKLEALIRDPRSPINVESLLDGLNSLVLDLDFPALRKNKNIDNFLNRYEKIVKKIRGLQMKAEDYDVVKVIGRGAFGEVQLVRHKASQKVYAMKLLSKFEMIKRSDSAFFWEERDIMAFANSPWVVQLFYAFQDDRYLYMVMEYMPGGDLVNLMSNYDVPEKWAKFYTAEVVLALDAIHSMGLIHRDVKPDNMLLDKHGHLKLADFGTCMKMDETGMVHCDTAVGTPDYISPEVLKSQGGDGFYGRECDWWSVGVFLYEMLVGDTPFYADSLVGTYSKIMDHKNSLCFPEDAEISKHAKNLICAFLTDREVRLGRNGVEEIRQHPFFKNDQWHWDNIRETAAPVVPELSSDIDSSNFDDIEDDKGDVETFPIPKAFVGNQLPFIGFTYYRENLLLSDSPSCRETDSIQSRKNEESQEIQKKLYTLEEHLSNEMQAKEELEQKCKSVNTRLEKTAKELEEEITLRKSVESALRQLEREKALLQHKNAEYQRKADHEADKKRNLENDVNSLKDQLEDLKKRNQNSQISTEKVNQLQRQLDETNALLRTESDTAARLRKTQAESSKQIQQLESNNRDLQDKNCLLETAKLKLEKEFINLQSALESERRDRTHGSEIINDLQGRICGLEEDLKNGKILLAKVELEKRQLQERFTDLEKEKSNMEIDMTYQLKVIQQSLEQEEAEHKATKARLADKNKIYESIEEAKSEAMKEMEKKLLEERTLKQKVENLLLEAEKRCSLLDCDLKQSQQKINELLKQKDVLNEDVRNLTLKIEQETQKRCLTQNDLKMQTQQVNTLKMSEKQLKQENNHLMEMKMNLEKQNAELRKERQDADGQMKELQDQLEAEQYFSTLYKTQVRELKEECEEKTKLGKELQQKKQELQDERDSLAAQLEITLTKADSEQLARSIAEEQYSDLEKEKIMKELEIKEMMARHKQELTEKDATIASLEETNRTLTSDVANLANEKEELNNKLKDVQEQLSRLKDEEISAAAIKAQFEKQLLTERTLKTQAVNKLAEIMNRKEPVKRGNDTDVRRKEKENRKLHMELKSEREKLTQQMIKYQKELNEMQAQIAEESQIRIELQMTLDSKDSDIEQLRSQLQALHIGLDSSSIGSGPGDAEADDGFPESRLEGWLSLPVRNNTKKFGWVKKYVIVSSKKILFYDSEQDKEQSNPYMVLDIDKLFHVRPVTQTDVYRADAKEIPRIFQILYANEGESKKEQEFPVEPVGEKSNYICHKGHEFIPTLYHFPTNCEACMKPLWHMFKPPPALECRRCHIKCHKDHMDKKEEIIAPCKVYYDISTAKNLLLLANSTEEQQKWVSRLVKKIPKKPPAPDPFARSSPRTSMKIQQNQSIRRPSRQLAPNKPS
hROCK1, sequence (Q13464 whole entry): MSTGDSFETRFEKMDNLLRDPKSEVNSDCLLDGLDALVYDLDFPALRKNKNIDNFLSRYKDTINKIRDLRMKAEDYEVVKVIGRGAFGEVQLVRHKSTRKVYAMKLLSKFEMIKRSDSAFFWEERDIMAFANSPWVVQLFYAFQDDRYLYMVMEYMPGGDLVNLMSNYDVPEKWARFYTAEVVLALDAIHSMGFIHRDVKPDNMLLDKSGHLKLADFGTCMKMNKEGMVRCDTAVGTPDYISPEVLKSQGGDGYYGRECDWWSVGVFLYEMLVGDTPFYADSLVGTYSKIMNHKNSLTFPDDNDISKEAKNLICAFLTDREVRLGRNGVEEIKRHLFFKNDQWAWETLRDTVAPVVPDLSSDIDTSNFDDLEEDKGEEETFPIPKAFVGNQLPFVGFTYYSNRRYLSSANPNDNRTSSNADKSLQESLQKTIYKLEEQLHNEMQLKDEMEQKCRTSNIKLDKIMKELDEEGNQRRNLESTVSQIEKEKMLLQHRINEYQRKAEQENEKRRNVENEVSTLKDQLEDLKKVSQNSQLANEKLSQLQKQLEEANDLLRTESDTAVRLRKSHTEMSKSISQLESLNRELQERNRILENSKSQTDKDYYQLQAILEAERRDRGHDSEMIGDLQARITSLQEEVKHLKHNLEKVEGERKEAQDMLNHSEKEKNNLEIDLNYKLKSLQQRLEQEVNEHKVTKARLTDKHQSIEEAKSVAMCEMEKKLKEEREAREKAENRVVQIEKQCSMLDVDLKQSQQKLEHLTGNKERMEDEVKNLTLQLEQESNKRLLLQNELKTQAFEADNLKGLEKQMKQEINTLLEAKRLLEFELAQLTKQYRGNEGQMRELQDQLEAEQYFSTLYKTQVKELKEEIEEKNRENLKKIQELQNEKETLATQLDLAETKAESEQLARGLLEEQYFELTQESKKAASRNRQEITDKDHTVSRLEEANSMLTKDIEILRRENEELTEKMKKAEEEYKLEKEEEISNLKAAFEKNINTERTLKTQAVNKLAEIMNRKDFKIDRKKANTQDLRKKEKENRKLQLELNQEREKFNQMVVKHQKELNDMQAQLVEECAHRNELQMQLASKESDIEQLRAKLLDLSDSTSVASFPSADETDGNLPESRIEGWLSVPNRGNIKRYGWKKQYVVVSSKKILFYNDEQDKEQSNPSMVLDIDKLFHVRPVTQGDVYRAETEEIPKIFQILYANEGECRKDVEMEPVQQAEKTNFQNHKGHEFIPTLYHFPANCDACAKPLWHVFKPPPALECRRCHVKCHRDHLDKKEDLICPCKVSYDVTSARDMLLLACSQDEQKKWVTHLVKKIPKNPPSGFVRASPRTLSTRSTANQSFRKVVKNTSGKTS

In the case of `CCS(=O)(=O)N1CC(CC#N)(n2cc(-c3ncnc4[nH]ccc34)cn2)C1` [Baricitinib (37), baricitinib], the values for the IC50 against hROCK1 and on hROCK2 were 19 nM and 11 nM, respectively. The “crossing of the blood-brain barrier (BBB)” value in [1] is “cross the blood-brain barrier (BBB)”.
As for `CC(C)NC(=O)COc1cccc(-c2nc(Nc3ccc4[nH]ncc4c3)c3ccccc3n2)c1` [Belumosudil (4), Belumosudil], the IC50 (in general, the concentration needed to halve the response being measured) with ROCK1 was […]; with ROCK2 it was […].
In the case of `O=C1CCc2cc(OCCCCc3nnnn3C3CCCCC3)ccc2N1` [Cilostazole], the “ROCK1 % (30 µM), printed under IC50 ROCK1 head” value at hROCK1 (30 µM) worked out at 3%. Moreover, at hROCK2 (30 µM), the “ROCK2 % (30 µM), printed under IC50 ROCK2 head” value was found to be 8%.
On to `O=S(=O)(c1cccc2cnccc12)N1CCCNCC1` [Fasudil (2), Fasudil], for which the IC50 with ROCK1 was […]. Moreover, in data set [2], the “levels of Tau phosphorylation” value is “decreased the levels of Tau phosphorylation”.
On to `Cc1ccc(C(=O)OCc2ccc([C@@H](CN)C(=O)Nc3ccc4cnccc4c3)cc2)c(C)c1` [Netarsudil (1), Netarsudil], for which the IC50 in the data set on ROCK1 was […]; in the data set with ROCK2 it was […].
With `O=C(CCNNC(=O)c1ccncc1)NCc1ccccc1` [Nialamide (40), nialamide], the figures for the IC50 against hROCK1 and against hROCK2 were 18800 nM and 29200 nM, respectively.
Take `C[C@H]1CNCCCN1S(=O)(=O)c1cccc2cncc(F)c12` [Ripasudil (3), Ripasudil]: the figures for the half-inhibitory concentration (IC50) in the data set on ROCK1 and in the data set on ROCK2 were 51 nM and 19 nM, respectively.
`N#CC[C@H](C1CCCC1)n1cc(-c2ncnc3[nH]ccc23)cn1` [Ruxolitinib (36), ruxolitinib] registered an IC50 against PKCα of 1250 nM. Further, the “cell viability (MTT), C6 glioma (astrocytic cell line)” value in the data set on C6 cells (listed as ruxolitinib) is “No significant impact on the viability”; in the data set on C6 cells (listed as ruxolitinib (36)), “did not adversely affect the viability; also recorded: does not affect the viability”. Also, the “cell viability (MTT), SH-SY5Y (neuronal cell line)” value in the data set with SH-SY5Y cells (listed as ruxolitinib) is recorded as “No significant impact on the viability”; in the data set with SH-SY5Y cells (listed as ruxolitinib (36)), “did not adversely affect the viability; also recorded: does not affect the viability”. For the same compound, the “C3 immunostaining in LPS-treated astrocyte cultures” value is “decreased C3 immunostaining; also recorded: reversed this event” in data set [3] (listed as ruxolitinib) and “reduce C3 immunolabeling” in data set [3] (listed as ruxolitinib (36)). The “GFAP intermediate filament organization and process extension of astrocytes” value in data set [3] (1 μM) was “did not impact intermediate filament organization and process extension”. The “crossing of the blood-brain barrier (BBB)” value in [1] is on record as “cross the blood-brain barrier (BBB)”.
`COc1cc2nccc(Oc3ccc(NC(=O)Nc4cc(C)on4)c(Cl)c3)c2cc1OC` [Tivozanib (39), tivozanib]: the 50% inhibitory concentration (IC50) against hROCK1 came out at 12900 nM; on hROCK2 it was 856 nM. The “selectivity for ROCK2 over ROCK1” value at hROCK2 (from the IC50 values) stood at 15 fold.
For `Cc1cc(Nc2ncnc3ccc(NC4=NC(C)(C)CO4)cc23)ccc1Oc1ccn2ncnc2c1` [Tucatinib (41), tucatinib], the values for the IC50 at hROCK1 and on hROCK2 were 51500 nM and 18600 nM, respectively.
